Assay results published in US7378234B2, “Method for isolating hepatitis C virus peptides” (Intercell AG, priority 2002, dated 2008).
“Also recorded” adds a separate entry of the source.

Key:
[1] = system: HLA-DRB1*0401 transgenic mice; assay: Immunization of HLA-DRB1*0401 transgenic mice (peptide + CpI), splenocyte IFN-gamma ELISpot; type: in vivo, mouse; settings: for immunogenicity in HLA-DRB1*0401 transgenic mice (in words): Example II, IFN-gamma ELISpot of splenocytes; for Immunogenicity, peptide-specific IFN-gamma-producing cells, DRB1*0401: HLA-DRB1*0401 transgenic mice, splenocytes
Outline: (§1)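 Groups of three female 8-week-old transgenic mice were given 100 μg peptide plus 30 μg CpI oligodinucleotide subcutaneously in the flank. Splenocytes (1×10^6–3×10^5/well) were restimulated overnight at 37 °C with the immunizing peptide, control peptides or medium, and IFN-gamma spots counted by ELISpot; + = <100, ++ = >100 peptide-specific cells per million splenocytes.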

[2] = system: HLA-A*0201 transgenic mice; assay: Immunization of HLA-A*0201 transgenic mice (peptide + CpI), splenocyte IFN-gamma ELISpot; type: in vivo, mouse; settings: for immunogenicity in HLA-A*0201 transgenic mice (in words): Example II, IFN-gamma ELISpot of splenocytes; for Immunogenicity, peptide-specific IFN-gamma-producing cells, A*0201: HLA-A*0201 transgenic mice, splenocytes
Outline: as §1

[3] = system: HLA-B*0702 transgenic mice; assay: Vaccination of HLA-B*0702 transgenic mice (peptide + IC31), IFN-gamma ELISpot with spleen cells and CD8+ fraction; type: in vivo, mouse; settings: for Immunogenicity, peptide-specific IFN-gamma-producing cells, B*0702: HLA-B*0702 transgenic mice, splenocytes; for specific INF-γ producing T cells / HLA-B*0702 epitope in HLA-B*0702 transgenic mice (in words): peptide + IC31, whole spleen cells and CD8+ fraction
Outline: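 Transgenic mice (groups of 5, male, 8–14 weeks) vaccinated s.c. in hind footpads with 100 μg peptide + IC31; 6 days later pooled splenocytes or MACS-purified CD8+ (A2, B7) or CD4+ (DR4) fractions restimulated overnight with peptide. IFN-gamma spots counted by ELISpot, 1×10^6–3×10^5 cells/well.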

[4] = system: HLA-DRB1*0401 transgenic mice; assay: Vaccination of HLA-DRB1*0401 transgenic mice (peptide + IC31), IFN-gamma ELISpot with spleen cells and CD4+ fraction; type: in vivo, mouse; settings: peptide + IC31, whole spleen cells and CD4+ fraction
Procedure: (§2) Mouse splenocyte ELIspot assay for single cell IFN-gamma release ELISpot plates (MAHA S4510, Millipore, Germany) were rinsed with PBS (200 μl/well), coated with anti-mouse IFN-gamma mAb (clone R46A2; 100 μl/well of 5 μg/ml in 0.1 M NaHCO3, pH 9.2-9.5) and incubated overnight at 4° C. Plates were washed four times with PBS/0.1% Tween 20 and incubated with PBS/1% BSA (200 μl/well) at room temperature for 2 h to block nonspecific binding. Spleen cells from vaccinated mice were prepared and plated at 1×10^6-3×10^5 cells/well and incubated overnight at 37° C./5% CO2 either in the presence of the immunizing antigen (peptide), control peptides or with medium alone. Subsequently, plates were washed four times and incubated with biotinylated anti-mouse IFN-gamma mAb (clone AN18.17.24, 100 μl/well of 2 μg/ml in PBS/1% BSA) for 2 h at 37° C. After washing, streptavidin-peroxidase (Roche Diagnostics, Vienna, Austria) was added ( 1/5000 in PBS, 100 μl/well) and plates were incubated at room temperature for 2 additional hours. Subsequently, substrate was added to the washed plates (100 μl/well of a mixture of 10 ml 100 mM Tris pH 7.5 supplemented with 200 μl of 40 mg/ml DAB stock containing 50 μl of 80 mg/ml NiCl2 stock and 5 μl of 30% H2O2). The reaction was stopped after 20-30 minutes by washing the plates with tap water. Dried plates were evaluated with an ELISpot reader (BIOREADER 2000, BioSys, Karben, Germany).
(§3) Groups of 5 mice (HLA-A*0201-, HLA-DRB1*0401- and HLA-B*0702 transgenic mice, male, 8-14 weeks of age) were injected subcutaneous into the hind footpads with 100 μg of peptide +IC31 per mouse (50 μg per footpad). (PCT/EP01/12041, WO 02/32451 A1 and PCT/EP01/06433, WO 01/93905 A1; IC31 is a combination of the immunizer disclosed in WO 01/93905 and WO 02/32451).
(§4) 6 days after vaccination single cell suspension of pooled spleens were prepared and additionally pure fractions of CD8+ in the case of A2 and B7 tg mice (CD8+ fraction for B7 mice containing 97% of CD8 and 1.5% of CD4 cells and for A2 tg mice 83% of CD8 and 8% of CD4 cells) and CD4+ for DR4tg mice (CD4+ fraction for DR4tg mice containing 98% of CD4 cells and 0.2% of CD8 cells) were separated from the spleen cell suspension using MACS separating kit (Miltenyi, Germany).

[5] = system: HLA-A*0201 transgenic mice; assay: Vaccination of HLA-A*0201 transgenic mice (peptide + IC31), IFN-gamma ELISpot with spleen cells and CD8+ fraction; type: in vivo, mouse; settings: peptide + IC31, whole spleen cells and CD8+ fraction
Procedure: as §2, §3, §4

HLA-DRB1*0101 = HLA-DRB1*0101 (Homo sapiens, UniProt P01903+P01911, A100R/D57E/F55L/F60I/F76Y/I96L/L162R/M171V/P40L/Q125E/R42F/V115G/Y59C); assay: Epitope capture / peptide binding, SDS-stability assay, soluble DRB1*0101; settings: soluble HLA class II, individual peptide confirmed (Table 2)
HLA class II = HLA class II coverage of hotspots and epitopes, compiled from the Examples and Tables of this specification (epitope capture, HLA-transgenic animals, in vitro stimulation of human mononuclear cells); settings: source data: Examples and Tables within this specification
HLA-DRB1*0401 = HLA-DRB1*0401 (Homo sapiens, UniProt P01903+P01911, A100K/A169T/F76Y/I96L/K127E/L162R/M171V/N62H/P40V/Q125Y/R42H/S133A/S149N/S66Y/V115G/V209L/W38E); assay: Epitope capture / peptide binding, SDS-stability assay, soluble DRB1*0401; settings: soluble HLA class II, individual peptide confirmed (Table 2)
HLA-DRB1*0404 = HLA-DRB1*0404 (Homo sapiens, UniProt P01903+P01911, A100R/A169T/F76Y/I96L/K127E/L162R/M171V/N62H/P40V/Q125Y/R42H/S133A/S149N/S66Y/V209L/W38E); assay: Epitope capture / peptide binding, SDS-stability assay, soluble DRB1*0404; settings: soluble HLA class II, individual peptide confirmed (Table 2)
[6] = system: PBMC from HCV RNA-negativ therapy responders or subjects spontaneously recovered; assay: IFN-gamma ELIspot with human PBMC from HCV therapy responders or spontaneously recovered subjects; settings: directly ex vivo, donor H04; >8 significant
HLA-B*0702 = HLA-B*0702 (Homo sapiens, UniProt P01889); assay: Competition-type peptide binding assay, soluble HLA-B*0702, FITC-labelled reference peptide; settings: for HLA-B*0702 minimal epitope (in words): short peptides from Ipep 1587 with HLA-B*0702 binding motifs
Procedure: These were tested in a competition-type peptide binding assay using soluble HLA-B*0702 and the FITC-labelled reference peptide […] (SEQ ID NO:1033), which is a known HLA-B*0702 epitope derived from EBV (Stuber et al., 1995). […] Thus it is likely to present the minimal HLA-B*0702 epitope contained in Ipep 1587.

FWAKHMWNFISGIQYLAGLSTLPGNPAIASLMAF [Peptide 1565]
immunogenicity in HLA-DRB1*0401 transgenic mice (in words) [1]: immunogenic | Immunogenicity, peptide-specific IFN-gamma-producing cells, DRB1*0401 [1]: ++ (strongly immunogenic (++, more than 100 peptide-specific cells among a million splenocytes)) | immunogenicity in HLA-A*0201 transgenic mice (in words) [2]: immunogenic | Immunogenicity, peptide-specific IFN-gamma-producing cells, A*0201 [2]: ++ (strongly immunogenic (++, more than 100 peptide-specific cells among a million splenocytes)) | Immunogenicity, peptide-specific IFN-gamma-producing cells, B*0702 [3]: + (immunogenic (+, less than 100 peptide-specific cells among a million splenocytes)) | specific INF-γ producing T cells / HLA-B*0702 epitope in HLA-B*0702 transgenic mice (in words) [3]: HLA-B*0702 epitopes with T-cell activating capacity | specific INF-γ producing T cells / HLA-DRB1*0401 epitope in HLA-DRB1*0401 transgenic mice (in words) [4]: confirmed to contain human HLA-DRB1*0401 epitopes | specific INF-γ producing T cells / HLA-A*0201 epitope in HLA-A*0201 transgenic mice (in words) [5]: confirmed to contain human HLA-A*0201 epitopes

VVCCSMSYTWTGALITPC [Peptide 1604]
Binding to DRB1 *0101 (HLA-DRB1*0101): * (weak binding) | immunogenicity in HLA-DRB1*0401 transgenic mice (in words) [1]: immunogenic; also recorded: immunogenicity | Immunogenicity, peptide-specific IFN-gamma-producing cells, DRB1*0401 [1]: ++ (strongly immunogenic (++, more than 100 peptide-specific cells among a million splenocytes)) | immunogenicity in HLA-A*0201 transgenic mice (in words) [2]: immunogenicity | Immunogenicity, peptide-specific IFN-gamma-producing cells, A*0201 [2]: ++ (strongly immunogenic (++, more than 100 peptide-specific cells among a million splenocytes)) | Immunogenicity, peptide-specific IFN-gamma-producing cells, B*0702 [3]: ++ (strongly immunogenic (++, more than 100 peptide-specific cells among a million splenocytes)) | specific INF-γ producing T cells / HLA-B*0702 epitope in HLA-B*0702 transgenic mice (in words) [3]: HLA-B*0702 epitopes with T-cell activating capacity | specific INF-γ producing T cells / HLA-B*0702 epitope in HLA-B*0702 transgenic mice (in words) ([3]; listed as Ipep1604): high numbers of specific INF-γ producing T cells; also recorded: class I epitopes | specific INF-γ producing T cells / HLA-DRB1*0401 epitope in HLA-DRB1*0401 transgenic mice (in words) ([4]; listed as Ipep1604): high numbers of specific INF-γ producing T cells; also recorded: class II epitope | specific INF-γ producing T cells / HLA-A*0201 epitope in HLA-A*0201 transgenic mice (in words) ([5]; listed as Ipep1604): high numbers of specific INF-γ producing T cells; also recorded: class I epitopes | HLA-class II coverage (HLA class II): DR1,4,7,11

VVCCSMSYSWTGALITPC [Peptide 1605]
Binding to DRB1 *0101 (HLA-DRB1*0101): nb (no binding) | Binding to DRB1 *0401 (HLA-DRB1*0401): nb (no binding) | Binding to DRB1 *0404 (HLA-DRB1*0404): * (weak binding) | immunogenicity in HLA-DRB1*0401 transgenic mice (in words) [1]: immunogenicity | Immunogenicity, peptide-specific IFN-gamma-producing cells, DRB1*0401 [1]: + (immunogenic (+, less than 100 peptide-specific cells among a million splenocytes)) | immunogenicity in HLA-A*0201 transgenic mice (in words) [2]: immunogenicity | Immunogenicity, peptide-specific IFN-gamma-producing cells, A*0201 [2]: + (immunogenic (+, less than 100 peptide-specific cells among a million splenocytes)) | Immunogenicity, peptide-specific IFN-gamma-producing cells, B*0702 [3]: + (immunogenic (+, less than 100 peptide-specific cells among a million splenocytes)) | specific INF-γ producing T cells / HLA-B*0702 epitope in HLA-B*0702 transgenic mice (in words) [3]: HLA-B*0702 epitopes with T-cell activating capacity | specific INF-γ producing T cells / HLA-B*0702 epitope in HLA-B*0702 transgenic mice (in words) ([3]; listed as Ipep1605): weaker responses | specific INF-γ producing T cells / HLA-DRB1*0401 epitope in HLA-DRB1*0401 transgenic mice (in words) [4]: confirmed to contain human HLA-DRB1*0401 epitopes | specific INF-γ producing T cells / HLA-DRB1*0401 epitope in HLA-DRB1*0401 transgenic mice (in words) ([4]; listed as Ipep1605): weaker responses | specific INF-γ producing T cells / HLA-A*0201 epitope in HLA-A*0201 transgenic mice (in words) [5]: confirmed to contain human HLA-A*0201 epitopes | specific INF-γ producing T cells / HLA-A*0201 epitope in HLA-A*0201 transgenic mice (in words) ([5]; listed as Ipep1605): weaker responses | peptide-specific IFN-gamma secreting T-cells, donor H04 [6]: 25 T-cells/10^6 PBMC

SPGALVVGVI [Peptide 1838]
competition of FITC-labelled reference peptide binding to soluble HLA-B*0702 (HLA-B*0702; 80-fold molar excess, 48 h at 37° C., reference peptide LPCVLWPVL): ~30% | HLA-B*0702 minimal epitope (in words) (HLA-B*0702): minimal HLA-B*0702 epitopes | HLA-B*0702 minimal epitope (in words) (HLA-B*0702; listed as Ipep 1838): HLA-B*0702 minimal epitope

VDYPYRLWHYPCTVNFTIFKVRMYVGGVEHRL [Peptide 1650]
immunogenicity in HLA-DRB1*0401 transgenic mice (in words) [1]: immunogenicity | Immunogenicity, peptide-specific IFN-gamma-producing cells, DRB1*0401 [1]: ++ (strongly immunogenic (++, more than 100 peptide-specific cells among a million splenocytes)) | immunogenicity in HLA-A*0201 transgenic mice (in words) [2]: immunogenicity | Immunogenicity, peptide-specific IFN-gamma-producing cells, A*0201 [2]: ++ (strongly immunogenic (++, more than 100 peptide-specific cells among a million splenocytes)) | Immunogenicity, peptide-specific IFN-gamma-producing cells, B*0702 [3]: + (immunogenic (+, less than 100 peptide-specific cells among a million splenocytes)) | specific INF-γ producing T cells / HLA-B*0702 epitope in HLA-B*0702 transgenic mice (in words) [3]: HLA-B*0702 epitopes with T-cell activating capacity | specific INF-γ producing T cells / HLA-DRB1*0401 epitope in HLA-DRB1*0401 transgenic mice (in words) [4]: confirmed to contain human HLA-DRB1*0401 epitopes | specific INF-γ producing T cells / HLA-A*0201 epitope in HLA-A*0201 transgenic mice (in words) [5]: confirmed to contain human HLA-A*0201 epitopes | HLA-class II coverage (HLA class II): DR1,4,7,11
